Results on one substance are retold here after article PMC12583694, “RNF114 and RNF166 exemplify reader-writer E3 ligases that extend K11 polyubiquitin onto sites of MARUbylation” (The EMBO Journal, 2025).

In one experiment the target is T1, RNF114 (Homo sapiens, UniProt Q9Y508).
T1 construct: full-length RNF114, N-terminal His-3C fusion (pOPIN-B), expressed in E. coli Rosetta; cobalt resin and gel filtration
Put plainly: fluorescence polarization. The class given is binding. The settings on record: labelled compound; unreliable (estimated, saturation not reached); pH 7.4, 150 mM NaCl, 0.1 mg/mL BSA, 1 mM TCEP, 22 °C.

The target of experiment [1] is T2, AF1521 macrodomain (GST-AF1521) (Archaeoglobus fulgidus, UniProt O28751).
T2 construct: gene AF_1521; GST-AF1521 plasmid (gift from M. Nielsen), purified as previously reported
T2 sequence (O28751 1-192): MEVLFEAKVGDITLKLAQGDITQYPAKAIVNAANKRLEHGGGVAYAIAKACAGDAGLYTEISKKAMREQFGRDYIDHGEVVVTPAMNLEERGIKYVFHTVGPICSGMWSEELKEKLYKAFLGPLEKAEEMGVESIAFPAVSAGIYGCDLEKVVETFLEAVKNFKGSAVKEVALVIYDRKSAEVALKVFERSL
Put plainly: fluorescence polarization. The note with it: labelled compound; pH 7.4, 150 mM NaCl, 0.1 mg/mL BSA, 1 mM TCEP, 22 °C; one-site total binding fit. For orientation: Fluorescence polarisation rises when a labelled molecule tumbles more slowly, as on binding a larger partner.

In general, Kd refers to the constant that tells how readily two partners part at equilibrium.

T1 sequence (Q9Y508 whole entry, the tested form may be a part): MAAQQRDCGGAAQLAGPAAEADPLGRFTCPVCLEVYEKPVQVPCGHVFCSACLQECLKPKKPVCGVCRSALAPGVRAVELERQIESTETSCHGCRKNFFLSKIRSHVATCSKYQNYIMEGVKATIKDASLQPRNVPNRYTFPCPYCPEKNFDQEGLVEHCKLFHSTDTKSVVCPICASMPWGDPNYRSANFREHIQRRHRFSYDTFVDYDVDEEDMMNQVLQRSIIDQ

Turning to ADPr^T, the results for the Kd (on RNF114; in experiment [1]) were ~ 40 µM and 1200 nM, respectively.
